Experimental data reported in patent US6541463B1, “Inhibitors of type 5 and type 3 17β-hydroxysteroid dehydrogenase and methods for their use” (Endorecherche, Inc., priority 1998, dated 2003).
Like-named read-outs stand apart in the source and are kept apart here.

Tests used:
[1] = system: Shionogi mouse mammary carcinoma cells; experiment: Antiandrogenic activity: inhibition of DHT-induced proliferation of Shionogi cells; format: cell-based; conditions: for IC50: Mus musculus
Description: The manner in which the inhibition is determined is described in “Other Tests; B-Androgenic/Antiandrogenic Activity”. Lower numbers are desirable. ND means that a determination was not done.
Androgenic/antiandrogenic activity of some preferred compounds has been measured using the Shionogi mouse mammary carcinoma cells.
Minimal essential culture medium (MEM), non-essential amino acids, and fetal calf serum were purchased from Flow Laboratories. In order to remove endogenous steroids, serum was incubated overnight at 4° C. with 1% activated charcoal (Norit A, Fisher) and 0.1% Dextran T-70 (Pharmacia). A 2-h supplementary adsorption was performed at 25° C. in order to further remove protein-bound steroids. Serum was also inactivated by a 20-min incubation at 56° C.
5α-dihydrotestosterone (DHT) was obtained from Steraloids. The antiandrogen hydroxyflutamide (OH-FLU) was kindly supplied by Drs. T. L. Nagabuschan and R. Neri (Schering Corporation, Kenilworth, U.S.A.).
Shionogi male mice bearing androgen-sensitive mammary tumors were obtained from Drs. Keishi Matsumoto, Osaka, Japan, and Yvonne Lefebvre, Ottawa, Canada. For primary culture, tumors were excised and washed in ice-cold sterile 25 mM Hepes buffer (137 mM NaCl; 5 mM KCl; 0.7 mM Na2HPO4; 10 mM glucose, pH 7.2). After mincing with scissors, the tumor minces were digested for 2 h at 37° C. in Hepes buffer containing 3.8 mg/ml collagenase (Clostridium, Boehringer), 1.5 mg/ml hyaluronidase II (Sigma), and 3% bovine serum albumin fraction V (Schwartz-Mann). Dispersed cells were collected by centrifugation (500×g for 10 min), washed twice by suspension in minimal essential medium (MEM) containing 5% dextran-coated charcoal-treated fetal calf serum (DCC-FCS), 1% non-essential amino acids, 10 IU/ml penicillin, 50 μg/ml streptomycin, and 100 nM dihydrotestosterone (DHT) (Steraloids).
Cells were plated in the same medium at a density of 75 000 cells/ml in 75 cm^2 flasks under an atmosphere of 5% carbon dioxide in air at 37° C. The medium was changed weekly. The steroids and antisteroids were dissolved in ethanol and kept in stock solutions chosen to yield final ethanol concentrations less than 0.01% in the culture medium.
Cells were subcultured at near-confidence by gentle digestion in a solution of 0.1% pancreatin (Flow Laboratories) in Hepes buffer containing 3 mM ethylenediaminetetraacetic acid (EDTA) (pH 7.2). Cells were pelleted by centrifugation, resuspended in culture medium, counted in a Coulter counter, and replated as described above. Soft agar cloning was performed as described (Stanley et al., Cell 10: 35-44, 1977) in the presence of 100 nM DHT.
Cells were plated in 24-well plates at a density of 20 000 cells/well. The indicated increasing concentrations of agents were added to triplicate dishes, and cells were grown for 10-12 days with changes of medium every 3-4 days. Cell number was measured by direct counting in a Coulter counter.
ED50 values of action of DHT and glucocorticoids were calculated according to a least-square regression as described (Rodbard, Endocrinology 94: 1427-1431, 1974). Statistical significance was calculated according to a multiple-range test (Kramer, Biometrics 12: 307-310,1956).

estrogen receptor = molecular target: T1, estrogen receptor (Rattus norvegicus, UniProt P06211); experiment: Estrogen receptor (ER) assay: inhibition of [3H]E2 binding, uterine cytosol
T1 construct: from tissue; host or cells: uterine cytosol of gonadectomized female Sprague-Dawley rats
T1 sequence (P06211 1-600): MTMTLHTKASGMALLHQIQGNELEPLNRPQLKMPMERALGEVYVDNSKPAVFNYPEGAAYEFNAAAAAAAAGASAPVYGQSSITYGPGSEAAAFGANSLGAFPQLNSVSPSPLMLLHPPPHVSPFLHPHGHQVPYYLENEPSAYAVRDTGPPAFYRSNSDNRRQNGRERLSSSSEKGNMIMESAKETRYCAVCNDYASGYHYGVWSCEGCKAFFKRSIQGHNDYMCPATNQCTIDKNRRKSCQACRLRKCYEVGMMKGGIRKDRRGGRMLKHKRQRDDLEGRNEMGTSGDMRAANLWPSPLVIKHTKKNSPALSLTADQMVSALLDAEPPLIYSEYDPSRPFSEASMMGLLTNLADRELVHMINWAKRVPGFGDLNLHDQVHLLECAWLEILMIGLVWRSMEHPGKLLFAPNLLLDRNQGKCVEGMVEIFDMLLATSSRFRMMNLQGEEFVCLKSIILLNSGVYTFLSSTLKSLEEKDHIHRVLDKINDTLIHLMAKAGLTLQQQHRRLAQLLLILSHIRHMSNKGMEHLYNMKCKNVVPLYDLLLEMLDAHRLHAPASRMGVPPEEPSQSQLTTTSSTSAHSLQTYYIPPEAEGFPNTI
Description: Female Sprague-Dawley rats (Crl: CD(SD)Br) weighing 200-300 g were obtained from Charles-River Inc. (St-Constant, Québec, Canada). The rats were gonadectomized under general anesthesia (Isoflurane) and killed by cervical dislocation 24 hours later. The uteri were rapidly removed, dissected free from adhering tissue and frozen on dry-ice. Uteri were kept at −80° C. until assay. All subsequent steps were performed at 0-4° C. Uteri were homogenized in 10 vol (wt/vol) of buffer A (25 mM Tris-HCI, 1.5 mM EDTA disodium salt, 10 mM α-monothioglycerol, 10% glycerol, and 10 mM sodium molybdate, pH 7.4), using a Polytron PT-10 homogenizer (Brinkman Instruments, Canada) at a setting of 5 for three periods of 10 sec, with intervals of 10 sec for cooling. The homogenate was then centrifuged at 105,000×g for 60 min in a Beckman L5-65 ultracentrifuge (Fullerton, Calif.). The protein concentration of the cytosol fraction was measured according to the method of Bradford (Anal. Biochem. 72: 248-254, 1976), using bovine serum albumin as standard.
Estrogen binding was measured using the dextran-coated charcoal adsorption technique as described previously (Asselin et al., Endocrinology, 101: 666-671, 1977; Asselin and Labrie, J. Steroid Biochem., 9: 1079-1082, 1978). Briefly, [^3H]E2 solubilized in ethanol were diluted into buffer A. Aliquots of uterine cytosol preparation (0.1 ml) were incubated with 5 nM [^3H]E2 (˜200,000 cpm, 0.1 ml) in the presence or absence of the indicated concentrations of unlabeled compounds (0.1 ml, prepared in buffer A containing 10% ethanol) for 3 h at room temperature. Unbound steroids were then separated by incubation for 15 min at 0-4° C. with 0.3 ml 0.5% Norit-A and 0.05% Dextran T-70 in buffer B (1.5 mM EDTA disodium salt, 10 mM monothioglycerol, and 10 mM Tris-HCI, pH 7.4) and centrifuged at 3,000×g for 15 min. Aliquots of the supernatant (0.3 ml) were removed for radioactivity measurement.

[2] = Table 4′, DHT-induced proliferation, E^−6 (10^−6 M)
[3] = Table 4′, DHT-induced proliferation, E^−7
[4] = Table 4′, bracketed values, read-out: Antiandrogenic Activity Shionogi, DHT [IC50 (nM)]

Row | SMILES | Antiandrogenic Activity Shionogi, DHT E^−6 [1, 2] [%] | Antiandrogenic Activity Shionogi, DHT E^−7 [1, 3] | % Inhibition Estrogen Receptor E^−6 (estrogen receptor; Table 4′, E^−6) [%] | % Inhibition Estrogen Receptor E^−8 (estrogen receptor; Table 4′, E^−8) [%] | also measured
1 | COCCOc1cc2c(cc1C(=O)OC)C1CC[C@@]3(C)C(CC[C@@]34CCC(C)(C)C(=O)O4)C1CC2 (stereo partly drawn) [EM-1402-CS, 2-Carbomethoxy-3-(2″-methoxyethyloxy)-1,3,5(10)-estratrien 17(R)-spiro-2′-(5′,5′-dimethyl-6′-oxo)tetrahydropyran] | −87 | −13% | 0 | 1 | –
2 | CC1(C)CC[C@@]2(CCC3C4CCc5cc(F)ccc5C4CC[C@@]32C)OC1=O (stereo partly drawn) [EM-1157-CS] | −19 | 0% | 0 | 0 | –
3 | COCCOc1ccc2c(c1)CCC1C2CCC2(C)C1CCC21CCC(C)(C)C(=O)O1 [EM-1368-CS, 3-Methoxyethoxy-1,3,5(10)-estratrien-17(R)-spiro-2′-(5′,5′-dimethyl-6′-oxo)-tetrahydropyran] | −44 | 0% | 0 | 0 | –
4 | COCCOc1cc2c(cc1C(N)=O)C1CC[C@@]3(C)C(CC[C@@]34CCC(C)(C)C(=O)O4)C1CC2 (stereo partly drawn) [EM-1424, 2-Carbamoyl-3-(2″-methoxyethyloxy)-1,3,5(10)-estratrien 17(R)-spiro-2′-(5′,5′-dimethyl-6′-oxo)tetrahydropyran] | −58 | −22% | 3 | 3 | –
5 | CCC(=O)O[C@]1(C(C)=O)CCC2C3C=C(C)C4=CC(=O)C[C@H](C)[C@]4(C)C3CC[C@@]21C (stereo partly drawn) [CS-243] | – | – | – | – | Antiandrogenic Activity Shionogi, DHT ([1]; E^−6): −129; Antiandrogenic Activity Shionogi, DHT ([1]; E^−7): −102; IC50 ([1]; read-out: Antiandrogenic Activity Shionogi, DHT [IC50]): 11 nM; % Inhibition Estrogen Receptor (estrogen receptor; E^−6): 0%; % Inhibition Estrogen Receptor (estrogen receptor; E^−8): 1%
6 | C[C@]12CCC3c4cc([N+](=O)[O-])c(O)cc4CCC3C1CC[C@@]21CCCC(=O)O1 (stereo partly drawn) [EM-1124, 2-Nitro-1,3,5(10)-estraetriene-3-ol-17(R)-spiro-2′-(6′-oxo)tetrahydropyran] | −65 | 0% | 0 | 0 | –
7 | CC12C=CC(=O)C=C1C=CC1C2CCC2(C)C(=O)C3(CCCCC3)CC12 (stereo not drawn) [CS-204] | – | – | – | – | Antiandrogenic Activity Shionogi, DHT E^−6 ([1]; with DHT, E^−6): −13; Antiandrogenic Activity Shionogi, DHT E^−7 ([1]; with DHT, E^−7): −25; % Inhibition Estrogen Receptor E^−6 (estrogen receptor; E^−6): 0%; % Inhibition Estrogen Receptor E^−8 (estrogen receptor; E^−8): 0%
8 | C[C@]12CCC3c4ccc(O)cc4CCC3C1CC[C@@]21CCCC(=O)O1 (stereo partly drawn) [EM-919, 1,3,5(10)-estratrien-3-ol-17(R)-spiro-2′(6′-oxo)tetrahydropyran] | −95 | +38% | – | – | IC50 [1, 4]: 609 nM; % Inhibition Estrogen Receptor *E^−5 (estrogen receptor; Table 4′, starred values, E^−5): 90* %; % Inhibition Estrogen Receptor *E^−7 (estrogen receptor; Table 4′, starred values, E^−7): 07* %
9 | CC1CCC2(CCC3C4CCc5ccccc5C4CCC32C)OC1=O (stereo not drawn) [EM-1025] | −25 | −14% | 4 | 1 | –
10 | CC(C)C[C@@H]1CC2C3C=CC4=CC(=O)CC[C@]4(C)C3CC[C@]2(C)C1=O (stereo partly drawn) [EM-1273-CS] | – | – | – | – | Antiandrogenic Activity Shionogi, DHT E^−6 ([1]; with DHT, E^−6): −43; Antiandrogenic Activity Shionogi, DHT E^−7 ([1]; with DHT, E^−7): 9; % Inhibition Estrogen Receptor E^−6 (estrogen receptor; E^−6): 0%; % Inhibition Estrogen Receptor E^−8 (estrogen receptor; E^−8): 0%
11 | COCCOc1cc2c(cc1Cl)C1CCC3(C)C(CCC34CCC(C)(C)C(=O)O4)C1CC2 (stereo not drawn) [EM-1371-CS] | −76 | 0% | 1 | 2 | –
12 | CCC[C@@H]1CC2C3C=CC4=CC(=O)CC[C@]4(C)C3CC[C@]2(C)C1=O (stereo partly drawn) [EM-1097] | – | – | – | – | Antiandrogenic Activity Shionogi, DHT E^−6 ([1]; with DHT, E^−6): −71; Antiandrogenic Activity Shionogi, DHT E^−7 ([1]; with DHT, E^−7): −3; % Inhibition Estrogen Receptor E^−6 (estrogen receptor; E^−6): 1%; % Inhibition Estrogen Receptor E^−8 (estrogen receptor; E^−8): 0%
13 | C[C@]12CCC(=O)C=C1C=C[C@@H]1[C@@H]2CC[C@]2(C)C(=O)C3(CC4CC4C3)C[C@@H]12 (stereo partly drawn) [EM-1299, 4,6-Androstadien-3,17-dione-16-spirobicyclo[3′.1′.0′]-hexane] | – | – | – | – | Antiandrogenic Activity Shionogi, DHT E^−6 ([1]; with DHT, E^−6): −27; Antiandrogenic Activity Shionogi, DHT E^−7 ([1]; with DHT, E^−7): 0; % Inhibition Estrogen Receptor E^−6 (estrogen receptor; E^−6): 3%; % Inhibition Estrogen Receptor E^−8 (estrogen receptor; E^−8): 3%
14 | CC1(C)CC[C@@]2(CCC3C4CCc5cc(C(N)=O)ccc5C4CCC32C)OC1=O (stereo partly drawn) [EM-1404] | – | – | 0 | 0 | IC50 [1, 4]: ~1000 nM
